The values that follow come from patent US20240279239A1, “COMPOUNDS AND METHODS FOR MODULATING SPLICING” (REMIX THERAPEUTICS INC., priority 2020, published 2024).

The IC50 is the midpoint of a concentration-inhibition curve. Broadly, the AC50 is the concentration at which the activity in the assay is half-maximal.

Common to all, as to type: cell-based
In test [1] the test system is SMN2. Briefly: RT-qPCR canonical junction panel assay, SMN2. The settings on record: gene panel, read-out: SMN2 IC50 (decrease in CJ mRNA levels). Here is the method: (§1) Example 44: Exemplary splicing assay for monitoring expression levels of splice variants Compounds described herein were used to modulate RNA transcript abundance in cells. The expression of a target mRNA was measured by detecting the formation of an exon-exon junction in the canonical transcript (CJ). A compound mediated exon-inclusion event was detected by observing an increase in formation of a new junction with an alternative exon (AJ). Real-time qPCR assays were used to detect these splicing switches and interrogate the potency of various compounds towards different target genes. A high-throughput real time quantitative PCR (RT-qPCR) assay was developed to measure these two isoforms of the mRNA (CJ and AJ) for an exemplary gene, HTT, together with a control housekeeping gene, GAPDH or GUSB or PPIA, used for normalization. Briefly, the A673 or K562 cell line was treated with various compounds described herein (e.g., compounds of Formula (I)). After treatment, the levels of the HTT mRNA targets were determined from each sample of cell lysate by cDNA synthesis followed by qPCR.
(§2) The A673 cell line was cultured in DMEM with 10% FBS. Cells were diluted with full growth media and plated in a 96-well plate (15,000 cells in 100 µl media per well). The plate was incubated at 37° C. with 5% CO2 for 24 hours to allow cells to adhere. An 11-point 3-fold serial dilution of the compounds was made in DMSO then diluted in media in an intermediate plate. Compounds were transferred from the intermediate plate to the cell plate with the top dose at a final concentration of 10 uM in the well. Final DMSO concentration was kept at or below 0.25%. The cell plate was returned to the incubator at 37° C. with 5% CO2 for an additional 24 hours.
(§3) The K562 cell line was cultured in IMDM with 10% FBS. For K562, cells were diluted with full growth media and plated in either a 96-well plate (50,000 cells in 50 uL media per well) or a 384-well plate (8,000-40,000 cells in 45 uL media per well). An 11-point 3-fold serial dilution of the compounds were made in DMSO then diluted in media in an intermediate plate. Compound was transferred from the intermediate plate to the cell plate with the top dose at a final concentration of 10 uM in the well. Final DMSO concentration was kept at or below 0.25%. Final volume was 100 uL for 96-well plate and 50 uL for 384-well plate. The cell plate was then placed in an incubator at 37° C. with 5% CO2 for 24 hours.
(§4) The cells were then gently washed with 50 uL-100 uL cold PBS before proceeding to addition of lysis buffer. 30 uL-50 uL of room temperature lysis buffer with DNAse I (and optionally RNAsin) was added to each well. Cells were shaken/mixed thoroughly at room temperature for 5-10 minutes for lysis to take place and then 3 uL-5 uL of room temperature stop solution was added and wells were shaken/mixed again. After 2-5 minutes, the cell lysate plate was transferred to ice for RT-qPCR reaction setup. The lysates could also be frozen at ˜80° C. for later use.
(§5) In some cases, a direct lysis buffer was used. An appropriate volume of 3× lysis buffer (10 mM Tris, 150 mM NaCl, 1.5%-2.5% Igepal and 0.1-1 U/uL RNAsin, pH 7.4) was directly added to either K562 or A673 cells in media and mixed by pipetting 3 times. The plates were then incubated at room temperature with shaking/rocking for 20-50 minutes to allow for lysis to take place. After this time, the cell lysate plate was transferred to ice to set up for the RT-qPCR reactions. The lysates could also be frozen at −80° C. for later use.
(§6) To set up 10 uL RT-qPCR reactions, cell lysates were transferred to 384-well qPCR plates containing the master mix according to the table below. The plates were sealed, gently vortexed, and spun down before the run. The volumes were adjusted accordingly in some instances where the reaction was carried in 20 uL. The table below summarizes the components of the RT-qPCR reactions: […]
Background: Real-time PCR tracks product formation cycle by cycle.

Test [2] deals with HTT. Briefly: RT-qPCR splicing assay for HTT mRNA isoforms (canonical junction CJ and alternative junction AJ). The settings on record: A673 or K562 cell line, 24 hours treatment. On the procedure: as §1, §2, §3, §4, §5, §6
The subject of test [3] is Target C. As to the kind of experiment: RT-qPCR canonical junction panel assay, Target C. As to conditions: gene panel, read-out: Target C IC50 (decrease in CJ mRNA levels). Here is the method:
as §1, §2, §3, §4, §5, §6

The subject of test [4] is HTT. Briefly: RT-qPCR canonical junction panel assay, HTT. As to conditions: gene panel, read-out: HTT IC50 (decrease in CJ mRNA levels). Here is the method:
as §1, §2, §3, §4, §5, §6

The mark [5] stands for this setting: decrease in CJ mRNA levels, read-out: HTT CJ AC50.
[6] abbreviates: increase in AJ mRNA, read-out: HTT AJ AC50.

Read-outs that look alike come from different tables or passages of the source.

As to `Cn1cc2cc(-n3cnc4nc(N5CCNCC5)sc4c3=O)ccc2n1` [Compound 225, 6-(2-methyl-2H-indazol-5-yl)-2-(piperazin-1-yl)thiazolo[4,5-d]pyrimidin-7(6H)-one], the IC50 in test [1], in test [3] and in test [4] was above 10 µM each time. Also, the AC50 in test [2] (setting [5]) and in test [2] (setting [6]) was above 10 µM throughout.
Regarding `Cc1cn2cc(-c3nn4c(=O)cc(N5CCNC6(CC6)C5)nc4s3)cc(F)c2n1` [Compound 216, 2-(8-fluoro-2-methylimidazo[1,2-α]pyridin-6-yl)-7-(4,7-diazaspiro[2.5]octan-7-yl)-5H-[1,3,4]thiadiazolo[3,2-α]pyrimidin-5-one], the IC50 in test [1], in test [3] and in test [4] was 1 to 10 µM in each case. The AC50 in test [2] (setting [5]) and in test [2] (setting [6]) was 1 to 10 µM in each case.
As for `Cc1cn2cc(-c3nn4c(=O)cc(N5CCN(C)CC5)nc4s3)cc(F)c2n1` [Compound 217, 2-(8-fluoro-2-methylimidazo[1,2-α]pyridin-6-yl)-7-(4-methylpiperazin-1-yl)-5H-[1,3,4]thiadiazolo[3,2-α]pyrimidin-5-one], the IC50 in test [1], in test [3] and in test [4] was 1 to 10 µM throughout. The AC50 in test [2] (setting [5]) and in test [2] (setting [6]) was 1 to 10 µM each time.
